Experimental data reported in patent US20120028244A1, “Anti-Viral Azide Containing Compounds” (LIFE TECHNOLOGIES CORPORATION, priority 2010, published 2012).

Tests used:
HIV = assay: Luciferase reporter assay of infectivity of azide-labeled HIV on TZM/BI reporter cells; format: cell-based, human immunodeficiency virus; conditions: HIVNL4-3 produced in CEMx174 cells spiked with the compound; labeled virus incubated 12 hours on TZM/BI reporter cells; single cycle replication system; FIGS. 3 and 4
Description: CEMx174 cells were transfected with HIVNL4-3 in a T-150 flask and the virus production was monitored by reverse transcriptase activity until peak virus production occurred (usually 7 to 9 days post transfection). Prior to transfection, the CEMx174 cells were spiked with the following azide-modified biomolecules: 15-azidopentadecanoic acid (50-100 μM), 12-azidododecanoic acid (50-100 μM), tetraacetylated N-azidoacetylgalactosamine (20-40 μM), and tetraacetylated N-azidoacetyl-D-mannosamine (20-40 μM).
Labeled virus was also obtained from the transfected cells. More specifically, virus-containing supernatants were collected and virus was purified through 20% sucrose as previously described (Graham, D. R. et al., Proteomics 2008, 8:4919-30). The purified virus was then mixed with the CLICK-IT® detection reagent, tetramethylrhodamine (TAMRA) alkyne and the CLICK-IT® Protein Reaction Buffer Kit (Invitrogen, Carlsbad, Calif.). Virus samples were run on a one-dimensional gel to reveal azide-labeled viral proteins (FIG. 2). […]
To examine the effect of the azide-modified biomolecules on the innate biology of the virus, the azide-labeled virus from the transfected cells was isolated and tested in cell infection studies. […] Viral infectivity was determined by measuring cellular luciferase activities with two different luciferase reagents.

[1] = tested on: Nuclear-GFP BacMam 2.0 virus (baculovirus); assay: Infectivity of PTM analog-labeled Nuclear-GFP BacMam virus in U2-OS cells; format: cell-based; conditions: BacMam virus labeled in Sf9 insect cells with 50 uM analog; U2-OS cells incubated overnight with labeled virus; FIG. 5
Source text: Inhibition of insect cell baculovirus infectivity with azido fatty acid analogs: The BacMam system uses a modified insect cell virus (baculovirus) as a vehicle to efficiently deliver and express genes in mammalian cells. A Nuclear-GFP BacMam 2.0 expression system (Invitrogen, C10602) was used as a model to determine if PTM analog labeling of the virus would affect mammalian cell infectivity. Viruses were labeled with various PTM analogs and used to infect mammalian cells. Infectivity was determined by the expression of nuclear-GFP, as viral entry into the cell is required for expression of GFP protein. […]
Characterization of BacMam Virus Production: To verify, quantitate, and normalize the amount of enriched viruses obtained from insect cell supernatants, samples of each virus were lysed in SDS sample preparation buffer (SPB), sonicated with a probe tip sonicator, and heated at 90C to completely dissolve the viral proteins. Viral protein concentrations of the lysates were then determined. […]
Mammalian Cell Infection Protocol: To determine if the PTM analog-labeled viruses retain the ability to infect mammalian cells, 50,000 U2-OS cells (human osteosarcoma cell line) were plated onto a 6 well-chamber glass bottom plate. […] The following day cells were imaged on AMG EVOS fluorescence microscope at 10× or 20× magnification using both white light and GFP filters (FIG. 5). […]

| SMILES | impact on the infectivity of the virus (cellular luciferase activity) (HIV) | nuclear-GFP expression in U2-OS cells (viral entry) [1] |
| --- | --- | --- |
| [N-]=[N+]=NCCCCCCCCCCCC(=O)O [12-azidododecanoic acid] | profound impact on the infectivity of the virus | no nuclear-GFP expression |
| [N-]=[N+]=NCCCCCCCCCCCCCCC(=O)O [15-azidopentadecanoic acid] | – | no nuclear-GFP expression |
